# Laboratory results as given in US20260294995A1, “COMPOSITION FOR ORAL USE WITH HMG-COA REDUCTASE ENZYME INHIBITING ACTIVITY” (DIFASS INTERNATIONAL S.P.A., priority 2023, published 2026).
# Columns and labels:
# HMG-CoA reductase [1] = biological target: T1, HMG-CoA reductase (Homo sapiens, UniProt P04035); test: HMG-CoA reductase inhibition, spectrophotometric (absorbance at 340 nm, oxidation of NADPH); type: biochemical; conditions: for Percentage inhibition HMGR: positive control
# T1 construct: oxidation of NADPH by the catalytic subunit of HMG-CoA reductase; purchased
# T1 sequence (P04035 426-888 limits assumed): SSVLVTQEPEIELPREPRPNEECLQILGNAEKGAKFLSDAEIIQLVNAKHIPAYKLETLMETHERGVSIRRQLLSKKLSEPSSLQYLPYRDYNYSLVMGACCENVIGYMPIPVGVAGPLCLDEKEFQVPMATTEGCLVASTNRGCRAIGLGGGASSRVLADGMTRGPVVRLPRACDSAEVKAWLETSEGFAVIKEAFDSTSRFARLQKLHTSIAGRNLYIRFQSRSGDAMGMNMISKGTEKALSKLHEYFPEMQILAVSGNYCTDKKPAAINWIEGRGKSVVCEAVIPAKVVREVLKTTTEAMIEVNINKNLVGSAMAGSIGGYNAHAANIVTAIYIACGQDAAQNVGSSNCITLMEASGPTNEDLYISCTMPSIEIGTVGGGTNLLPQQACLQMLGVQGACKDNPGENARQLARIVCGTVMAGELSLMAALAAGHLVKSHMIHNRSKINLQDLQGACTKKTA
# Protocol: The screening was performed with an analysis kit that evaluates inhibition of HMG-CoA reductase. The assay was based on spectrophotometric measurement of the reduction of absorbance at 340 nm, which represents oxidation of NADPH by the catalytic subunit of HMG-CoA reductase in the presence of the HMG-COA substrate. The reaction is as follows: HMG-CoA+2NADPH+2H^+ ? mevalonate+2NADP^++CoA-SH. Modulation of the activity of the enzyme, and in particular its inhibition, was calculated as % variation relative to the activity measured under the control condition, i.e. in the absence of any inhibitor. The biochemical system was verified with the use of a positive control, pravastatin, at the doses of 212.5 mg (100 mM), 80 mg, 40 mg and 20 mg.
# A first test session was conducted with pravastatin as positive control at the theoretical concentration calculated as administration dose in the systemic circulation (5 L, mean blood volume of an adult weighing about 70 kg);
# Each test was conducted in triplicate, and the compounds were tested at different concentrations. […]
# [2] = 250 mg daily for three months, patients with metabolic syndrome; cited from earlier work
# [3] = 2022 meta-analysis; dose an essential factor; cited from earlier work
# [4] = oral doses from 100 mg to 2800 mg; cited from earlier work
# HMG-CoA reductase [5] = biological target: T2, HMG-CoA reductase (Homo sapiens, UniProt P04035); conditions: 10 μg/mL; compared with pravastatin; cited from earlier work
# T2 sequence (P04035 1-888): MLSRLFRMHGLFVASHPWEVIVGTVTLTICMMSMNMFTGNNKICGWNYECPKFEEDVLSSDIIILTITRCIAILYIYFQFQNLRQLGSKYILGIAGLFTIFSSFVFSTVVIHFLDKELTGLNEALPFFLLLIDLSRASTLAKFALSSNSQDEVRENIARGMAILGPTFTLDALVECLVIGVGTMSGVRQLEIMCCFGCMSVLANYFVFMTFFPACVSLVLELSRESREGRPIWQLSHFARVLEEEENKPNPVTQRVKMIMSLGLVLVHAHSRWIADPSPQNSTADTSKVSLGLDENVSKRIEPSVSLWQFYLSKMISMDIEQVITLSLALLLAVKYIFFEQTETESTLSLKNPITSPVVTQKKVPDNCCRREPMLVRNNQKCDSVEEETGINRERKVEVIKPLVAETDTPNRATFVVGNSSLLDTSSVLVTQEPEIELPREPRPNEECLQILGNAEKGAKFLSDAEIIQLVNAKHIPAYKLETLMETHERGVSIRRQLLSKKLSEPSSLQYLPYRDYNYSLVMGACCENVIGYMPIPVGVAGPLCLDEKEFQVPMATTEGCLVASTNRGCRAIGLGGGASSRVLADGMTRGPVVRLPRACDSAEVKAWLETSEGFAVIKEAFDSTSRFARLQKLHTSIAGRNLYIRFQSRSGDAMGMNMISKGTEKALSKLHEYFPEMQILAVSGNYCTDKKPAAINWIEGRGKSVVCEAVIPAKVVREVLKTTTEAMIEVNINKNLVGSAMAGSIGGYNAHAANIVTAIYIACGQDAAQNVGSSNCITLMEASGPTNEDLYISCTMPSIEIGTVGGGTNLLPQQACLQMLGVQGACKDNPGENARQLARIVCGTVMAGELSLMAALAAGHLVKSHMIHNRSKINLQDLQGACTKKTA
# HMG-COA reductase [6] = conditions: rat hepatocytes, in vitro; cited from earlier work
# HMG-CoA reductase [7] = biological target: T3, HMG-CoA reductase (Rattus norvegicus, UniProt P51639); conditions: 25 μM; glial cells; cited from earlier work
# T3 construct: in an in vitro model with glial cells; host or cells: C6 glioma cells (endogenous enzyme, inferred)
# T3 sequence (P51639 1-887): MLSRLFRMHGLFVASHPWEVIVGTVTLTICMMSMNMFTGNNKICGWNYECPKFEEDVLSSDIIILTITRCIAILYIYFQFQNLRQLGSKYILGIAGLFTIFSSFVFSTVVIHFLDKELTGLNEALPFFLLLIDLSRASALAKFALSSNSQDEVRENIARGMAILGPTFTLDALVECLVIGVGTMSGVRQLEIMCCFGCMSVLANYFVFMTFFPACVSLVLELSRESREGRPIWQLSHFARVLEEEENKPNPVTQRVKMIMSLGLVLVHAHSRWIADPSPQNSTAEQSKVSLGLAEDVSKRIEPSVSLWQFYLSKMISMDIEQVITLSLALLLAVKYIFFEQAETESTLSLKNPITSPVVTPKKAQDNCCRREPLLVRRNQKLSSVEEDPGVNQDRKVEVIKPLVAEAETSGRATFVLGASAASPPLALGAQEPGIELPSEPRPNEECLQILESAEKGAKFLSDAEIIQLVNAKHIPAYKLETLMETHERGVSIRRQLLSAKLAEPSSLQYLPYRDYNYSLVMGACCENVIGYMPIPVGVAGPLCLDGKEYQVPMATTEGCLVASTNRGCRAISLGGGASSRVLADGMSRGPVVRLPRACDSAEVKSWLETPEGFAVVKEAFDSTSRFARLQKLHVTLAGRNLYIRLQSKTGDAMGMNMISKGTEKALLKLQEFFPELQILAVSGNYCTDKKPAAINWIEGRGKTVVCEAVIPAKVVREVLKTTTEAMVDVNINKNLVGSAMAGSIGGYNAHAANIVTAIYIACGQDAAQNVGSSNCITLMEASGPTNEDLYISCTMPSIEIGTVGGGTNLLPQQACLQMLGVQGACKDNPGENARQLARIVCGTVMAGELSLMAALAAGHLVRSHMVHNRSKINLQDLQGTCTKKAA
compound,measurement,setting,value
"Oc1ccc(C=Cc2cc(O)cc(O)c2)cc1 [Resveratrol, resveratrol]",inhibition at 0.0102 µg/mL,"HMG-CoA reductase [1]; Test 1, 0.0102 μg/ml, 1:200 dilution, oral dose 10 mg, read-out: Percentage inhibition HMGR",0%
same,total cholesterol level,[2],reduces the total cholesterol level
same,total cholesterol and LDL cholesterol levels,[3],can be useful to reduce total cholesterol and LDL cholesterol levels
O=C(O)[C@H]1O[C@@H](Oc2cc3oc(-c4ccccc4)cc(=O)c3c(O)c2O)[C@H](O)[C@@H](O)[C@@H]1O [baicalin],proportionality in absorption depending on the oral dose,[4],did not indicate a proportionality in absorption
same,HMG-COA reductase inhibitory activity,HMG-CoA reductase [5],lower than with pravastatin
C/C=C1/[C@H](O[C@@H]2O[C@H](CO)[C@@H](O)[C@H](O)[C@H]2O)OC=C(C(=O)OC)[C@H]1CC(=O)OCCc1ccc(O)c(O)c1 [oleuropein],activity of HMG-COA reductase,HMG-COA reductase [6],reduces the activity of hydroxymethylglutaryl-CoA reductase
same,cholesterol synthesis,HMG-COA reductase [6],reduction in cholesterol synthesis
OCCc1ccc(O)c(O)c1 [hydroxytyrosol],reduction of HMG-COA reductase activity,HMG-CoA reductase [7],16%
same,synthesis of fatty acids and cholesterol,HMG-CoA reductase [7],downregulating effect
"CC[C@H](C)C(=O)O[C@H]1C[C@H](O)C=C2C=C[C@H](C)[C@H](CC[C@@H](O)C[C@@H](O)CC(=O)O)[C@H]21 [Pravastatin, pravastatin]",Percentage inhibition HMGR,HMG-CoA reductase [1]; 20 mg (theoretical concentration of dose in 5 L blood),56.3%
same,Percentage inhibition HMGR,HMG-CoA reductase [1]; 40 mg (theoretical concentration of dose in 5 L blood),68.9%
same,Percentage inhibition HMGR,HMG-CoA reductase [1]; 80 mg (theoretical concentration of dose in 5 L blood),85.9%
